According to ChEMBL document CHEMBL3217579, “Prodrug ionic liquids: functionalizing neutral active pharmaceutical ingredients to take advantage of the ionic liquid form” (Medchemcomm, 2013):

What was measured:
[1] = Prodrug conversion in simulated gastric fluid assessed as acetominophen formation at pH 1.2 after 210 mins; format: ADME, Stomach; details: simulated gi fluid, pH 1.2, 3.5 h
[2] = Prodrug conversion in simulated intestinal fluid assessed as acetominophen formation at pH 6.8 after 210 mins; format: ADME; details: simulated gi fluid, pH 6.8, 3.5 h
[3] = Prodrug conversion in PBS buffer assessed as acetominophen formation at pH 7.4 after 210 mins; format: physicochemical; details: pH 7.4, 3.5 h

Measured: Drug metabolism

CC(=O)Nc1ccc(OC(=O)Cn2cc[n+](C)c2)cc1.[Cl-]
Active: all assays above
